Measurements reported in patent publication US9738932B2, “Biomarkers for cardiovascular side-effects induced by cox-2 inhibitory compounds” (FIRALIS SAS, priority 2005, dated 2017).

Test system: mRNA expression in cardiovascular tissues
Assay: Affymetrix GeneChip mRNA expression profiling of monkey tissues (iliac vein, pulmonary vein, aorta, carotid artery, heart) after two-week oral-gavage treatment
[1] = iliac vein, group avg, Vioxx without A60055

Experimental: Administration of compounds. A two-week oral-gavage treatment with the Cox-2 specific inhibitor COX189 (Lumiracoxib®, Novartis) in comparison with rofecoxib (Vioxx®, Merck), and celecoxib (Celebrex®, Pharmacia/Pfizer), and with the nonselective NSAID, diclofenac (Voltaren®, Novartis) was performed. […] The test items were administered daily at doses of 100 mg/kg/day, except Vioxx® which was administered at 50 mg/kg/day.
Gene expression profiles. After a period of time (e.g., four weeks) of compound/drug administration, the treated animals are necropsied. 120 tissues are dissected and rapidly snap-frozen for genomics analysis. Organ samples are isolated for histopathological examinations and for gene expression localizations, such as by in situ hybridization.
Gene expression profiles have been generated using the Affymetrix microarray technology. (i) RNA extraction and purification: Briefly, total RNA was obtained by acid guanidinium thiocyanate-phenol-chloroform extraction (Trizol®, Invitrogen Life Technologies, San Diego, Calif.) from each frozen tissue section and the total RNA was then purified on an affinity resin (Rneasy®, Qiagen) according to the manufacturer's instructions. Total RNA was quantified by the absorbance at λ=260 nm (A260 nm) and the purity was estimated by the ratio A260 nm/A280 nm. Integrity of the RNA molecules was confirmed by non-denaturing agarose gel electrophoresis. RNA was stored at −80° C. until analysis. […] (ii) GeneChip® experiment: All GeneChip® experiments were conducted in the Genomics Factory EU following recommendations by the manufacturer of the GeneChip® system (Affymetrix, Expression Analysis Technical Manual (Affymetrix, Santa Clara, Calif., 2005). Human U133A genome arrays were used for transcript expression analysis. Double stranded cDNA was synthesized with a starting amount of approximately 5 μg full-length total RNA using the Superscript Choice System (Invitrogen Life Technologies) in the presence of a T7-(dT) 24 DNA oligonucleotide primer. Following synthesis, the cDNA was purified by phenol/chloroform/isoamyl alcohol extraction and ethanol precipitation. The purified cDNA was then transcribed in vitro using the BioArray® High Yield RNA Transcript Labeling Kit (ENZO) in the presence of biotinylated ribonucleotides form biotin labelled cRNA. The labelled cRNA was then purified on an affinity resin (Rneasy, Qiagen), quantified and fragmented. An amount of approximately 10 μg labelled cRNA was hybridized for approximately 16 hours at 45° C. to an expression probe array. The array was then washed and stained twice with streptavidin-phycoerythrin (Molecular Probes) using the GeneChip Fluidics Workstation 400 (Affymetrix). The array was then scanned twice using a confocal laser scanner (GeneArray Scanner®, Agilent) resulting in one scanned image. This resulting “.dat-file” was processed using the MASS program (Affymetrix) into a “.cel-file”. The “.cel file” was then transferred to tan Affymetrix GeneChip Laboratory Information Management System (LIMS) database, which is connected to a UNIX Sun Solaris server through a network filing system that allows for the average intensities for all probes cells (CEL file) to be downloaded into an Oracle database (NPGN). Raw data was converted to expression levels using a “target intensity” of 100. […] The data were checked for quality and loaded in the GeneSpring® software versions 5.0 (Silicon Genetics, Calif., US) for statistical analysis.
Quality control analysis of transcriptome data: The following quality measures were analysed for each sample: Scaling factor, background, percent present calls, AFFX-GAPDH 3′: AFFX-GAPDH 5′-ratio, AFFX-GAPDH 3′ variance, AFFX-Beta-actin 3′: AFFX-Beta-actin 5′-ratio.

CS(=O)(=O)c1ccc(C2=C(c3ccccc3)C(=O)OC2)cc1 [Vioxx®, rofecoxib]
HFE (211866_x_at) avg fold change vs control [1]: 1.0 fold | HHL (203020_at) avg fold change vs control [1]: 1.1 fold | HLA-A (211528_x_at) avg fold change vs control [1]: 1.3 fold | HLA-A (211529_x_at) avg fold change vs control [1]: 1.2 fold | HLA-A (211530_x_at) avg fold change vs control [1]: 1.8 fold | HLA-A (215313_x_at) avg fold change vs control [1]: 1.3 fold | HLA-B (208729_x_at) avg fold change vs control [1]: 1.2 fold | HLA-B (209140_x_at) avg fold change vs control [1]: 1.1 fold | HLA-B (211911_x_at) avg fold change vs control [1]: 1.4 fold | HLA-C (208812_x_at) avg fold change vs control [1]: 1.3 fold | HLA-C (214459_x_at) avg fold change vs control [1]: 1.4 fold | HLA-C (216526_x_at) avg fold change vs control [1]: 1.3 fold | HLA-DMA (217478_s_at) avg fold change vs control [1]: 1.1 fold | HLA-DMB (203932_at) avg fold change vs control [1]: 1.1 fold | HLA-DQA1 (212671_s_at) avg fold change vs control [1]: 1.0 fold | HLA-DQB1 (209823_x_at) avg fold change vs control [1]: 0.9 fold | HLA-DQB1 (211654_x_at) avg fold change vs control [1]: 1.0 fold | HLA-DQB1 (211656_x_at) avg fold change vs control [1]: 1.0 fold | HLA-DQB2 (212998_x_at) avg fold change vs control [1]: 1.2 fold | HLA-DRA (208894_at) avg fold change vs control [1]: 1.0 fold | HLA-DRA (210982_s_at) avg fold change vs control [1]: 1.0 fold | HLA-DRB1 (215193_x_at) avg fold change vs control [1]: 1.2 fold | HLA-DRB3 (209312_x_at) avg fold change vs control [1]: 1.1 fold | HLA-DRB6 (217362_x_at) avg fold change vs control [1]: 1.2 fold | HLA-E (200905_x_at) avg fold change vs control [1]: 1.3 fold | HLA-E (217456_x_at) avg fold change vs control [1]: 1.2 fold | HLA-F (204806_x_at) avg fold change vs control [1]: 1.1 fold | HLA-F (221875_x_at) avg fold change vs control [1]: 1.2 fold | ICAM1 (202638_s_at) avg fold change vs control [1]: 0.8 fold | ICAM1 (215485_s_at) avg fold change vs control [1]: 0.9 fold | ICSBP1 (204057_at) avg fold change vs control [1]: 1.4 fold | IFI27 (202411_at) avg fold change vs control [1]: 3.8 fold | IFI30 (201422_at) avg fold change vs control [1]: 1.0 fold | IFI44 (214453_s_at) avg fold change vs control [1]: 2.5 fold | IFIT1 (203153_at) avg fold change vs control [1]: 1.5 fold | IFIT2 (217502_at) avg fold change vs control [1]: 1.3 fold | IFIT4 (204747_at) avg fold change vs control [1]: 0.9 fold | IFITM2 (201315_x_at) avg fold change vs control [1]: 1.1 fold | IFITM3 (212203_x_at) avg fold change vs control [1]: 1.4 fold | IGF1 (209541_at) avg fold change vs control [1]: 0.9 fold | IGFBP4 (201508_at) avg fold change vs control [1]: 0.5 fold | IL1A (208200_at) avg fold change vs control [1]: 1.1 fold | IL2RG (204116_at) avg fold change vs control [1]: 1.4 fold | IL27RA (205926_at) avg fold change vs control [1]: 1.1 fold | INDO (210029_at) avg fold change vs control [1]: 1.1 fold | INPP5D (203332_s_at) avg fold change vs control [1]: 1.2 fold | IRF1 (202531_at) avg fold change vs control [1]: 0.8 fold | IRF7 (208436_s_at) avg fold change vs control [1]: 1.6 fold | ISGF3G (203882_at) avg fold change vs control [1]: 1.7 fold | ITGB2 (202803_s_at) avg fold change vs control [1]: 0.6 fold | JAK1 (214377_s_at) avg fold change vs control [1]: 1.3 fold | KLKB1 (206541_at) avg fold change vs control [1]: 1.2 fold | LAIR1 (208071_s_at) avg fold change vs control [1]: 0.5 fold | LCK (204890_s_at) avg fold change vs control [1]: 1.5 fold | LCP2 (205270_s_at) avg fold change vs control [1]: 0.9 fold | LILRB1 (207857_at) avg fold change vs control [1]: 0.5 fold | LILRB1 (211100_x_at) avg fold change vs control [1]: 1.3 fold | LILRB3 (208594_x_at) avg fold change vs control [1]: 0.9 fold | LILRB3 (210225_x_at) avg fold change vs control [1]: 0.8 fold | LRMP (204674_at) avg fold change vs control [1]: 1.7 fold | LY86 (205859_at) avg fold change vs control [1]: 1.5 fold | LY96 (206584_at) avg fold change vs control [1]: 1.1 fold | LYN (210754_s_at) avg fold change vs control [1]: 1.0 fold | MAF (209348_s_at) avg fold change vs control [1]: 1.0 fold | PCOLCE (202465_at) avg fold change vs control [1]: 0.5 fold | PLA2G4C (209785_s_at) avg fold change vs control [1]: 1.2 fold | PLCL2 (216217_at) avg fold change vs control [1]: 1.0 fold | PLSCR1 (202446_s_at) avg fold change vs control [1]: 1.2 fold | PRC1 (218009_s_at) avg fold change vs control [1]: 0.7 fold | PRG1 (201858_s_at) avg fold change vs control [1]: 0.8 fold | PRG1 (201859_at) avg fold change vs control [1]: 0.8 fold | PTPN22 (206060_s_at) avg fold change vs control [1]: 1.0 fold | PTPRC (207238_s_at) avg fold change vs control [1]: 1.3 fold | SOCS3 (206360_s_at) avg fold change vs control [1]: 0.8 fold | STAT1 (209969_s_at) avg fold change vs control [1]: 1.7 fold | STAT1 (AFFX-HUMISGF3A/M97935_5_at) avg fold change vs control [1]: 1.3 fold | STAT1 (AFFX-HUMISGF3A/M97935_MA_at) avg fold change vs control [1]: 1.3 fold | STAT1 (AFFX-HUMISGF3A/M97935_MB_at) avg fold change vs control [1]: 1.5 fold | TAPBP (208829_at) avg fold change vs control [1]: 0.9 fold | TCTEL1 (201999_s_at) avg fold change vs control [1]: 0.9 fold | TLR1 (210176_at) avg fold change vs control [1]: 0.9 fold | TLR2 (204924_at) avg fold change vs control [1]: 0.9 fold | TNFAIP3 (202643_s_at) avg fold change vs control [1]: 0.8 fold | TNFAIP3 (202644_s_at) avg fold change vs control [1]: 1.2 fold | TNFSF6 (210865_at) avg fold change vs control [1]: 1.1 fold | TNFSF10 (202687_s_at) avg fold change vs control [1]: 1.2 fold | TNFSF10 (202688_at) avg fold change vs control [1]: 0.9 fold | TRGC2 (211144_x_at) avg fold change vs control [1]: 1.3 fold | TRGC2 (216920_s_at) avg fold change vs control [1]: 1.0 fold | VCAM1 (203868_s_at) avg fold change vs control [1]: 0.8 fold | XCL1 (206366_x_at) avg fold change vs control [1]: 1.5 fold | XCL1 (214567_s_at) avg fold change vs control [1]: 1.1 fold | XLKD1 (219059_s_at) avg fold change vs control [1]: 1.0 fold | cig5 (213797_at) avg fold change vs control [1]: 1.4 fold | expression of CXCL10 and PD-ECGF (mainly in iliac and pulmonary veins, monkey #A60055): strongly induced | increase of CXCL10 mRNA expression in pulmonary vein (monkey #A60055, 50 mg/kg/day oral gavage, two weeks, pulmonary vein): 20 fold | increase of MCP-1 mRNA expression in pulmonary vein (monkey A60055, 50 mg/kg/day oral gavage, two weeks, pulmonary vein): 150 fold | expression of cPLA2 (most of the cardiovascular tissues): upregulated | expression of Toll like receptor 2 and CD14 (several tissues): significantly increased
